The results in this text go back to patent publication US20150265572A1, “INJECTABLE CANCER COMPOSITIONS” (GENSPERA, INC., priority 2012, published 2015).

The test system of series [1] is TSU prostate cancer cell line. Nature of the series: LD50 for killing against TSU prostate cancer cell line. Format: cell-based, human. The note with it: TSU prostate cancer cell line (non-PSMA producing). An excerpt:
The prodrugs are hydrolyzed by PSMA and release the corresponding Asp- or Glu-containing thapsigargin analogs, or the thapsigargin analog itself, and also lack potent cytotoxicity when not metabolized by PSMA. Non-PSMA producing TSU-Pr1 human prostate cancer cell line is exposed to each of the PSMA prodrugs at doses that are approximately 50-times the LD50 for the corresponding free thapsigargin analog.

A short description of series [2]: Stability to hydrolysis in mouse plasma. Type of series: in vitro ADME.
Series [3] can be described thus: Stability to hydrolysis in human plasma. Format: in vitro ADME.
Series [4] in a line: Stability of peptides in serum. Format: in vitro ADME.

Starred links: 1 amine or outer side, 2 acyl side, 3 side chain; linkers in the order of their positions; H or OH if unused. Non-standard residues stand in square brackets, D forms with d. Residues, ends and D or L forms follow the SMILES beside them. γGlu = O=C(O)[C@H](CCC(=O)[*:2])N[*:1]

12ADT-Glu [Composition 12ADT-Glu]: in series [1], the “LD50 value for killing” value is recorded as “approximately 50 nM”.

As to `N[C@@H](CC(=O)O)C(=O)N[C@@H](CCC(=O)N[C@@H](CCC(=O)N[C@@H](CC(=O)O)C(=O)N[C@@H](CCC(=O)O)C(=O)O)C(=O)O)C(=O)O` [Asp-Glu*Glu*Asp-Glu] (H-D[γGlu][γGlu]DE-OH; N-terminus and C-terminus assumed), the “stability to hydrolysis in plasma” value in series [2] and in series [3] was “completely stable” each time.

For `NC(=O)CC[C@H](NC(=O)[C@H](CC(=O)O)NC(=O)CC[C@H](NC(=O)CC[C@H](NC(=O)CC[C@H](N)C(=O)O)C(=O)O)C(=O)O)C(=O)O` [Glu*Glu*Glu*Asp-Gln] ({γGlu-γGlu-γGlu}-Asp-Gln-OH; N-terminus and C-terminus assumed), in series [4], the stability in serum entry is “high stability”.

Consider `N[C@@H](CCC(=O)N[C@@H](CCC(=O)N[C@@H](CCC(=O)N[C@@H](CC(=O)O)C(=O)N[C@@H](CCC(=O)O)C(=O)O)C(=O)O)C(=O)O)C(=O)O` [Glu*Glu*Glu*Asp-Glu] ({γGlu-γGlu-γGlu}-Asp-Glu-OH; N-terminus and C-terminus assumed), for which the stability in serum entry in series [4] is “high stability”.
